Target: Vascular endothelial growth factor receptor 2 (Homo sapiens, UniProt P35968)
Assay: Homogeneous Time-resolved Fluorescence (HTRF) Assay
Details: pH 7.4; 22 °C
From the text: The assay was using baculovirus-expressed recombinant protein kinase and biotinylated poly-Glu-Ala-Tyr substrate.

Vascular endothelial growth factor receptor 2, sequence (P35968 whole entry): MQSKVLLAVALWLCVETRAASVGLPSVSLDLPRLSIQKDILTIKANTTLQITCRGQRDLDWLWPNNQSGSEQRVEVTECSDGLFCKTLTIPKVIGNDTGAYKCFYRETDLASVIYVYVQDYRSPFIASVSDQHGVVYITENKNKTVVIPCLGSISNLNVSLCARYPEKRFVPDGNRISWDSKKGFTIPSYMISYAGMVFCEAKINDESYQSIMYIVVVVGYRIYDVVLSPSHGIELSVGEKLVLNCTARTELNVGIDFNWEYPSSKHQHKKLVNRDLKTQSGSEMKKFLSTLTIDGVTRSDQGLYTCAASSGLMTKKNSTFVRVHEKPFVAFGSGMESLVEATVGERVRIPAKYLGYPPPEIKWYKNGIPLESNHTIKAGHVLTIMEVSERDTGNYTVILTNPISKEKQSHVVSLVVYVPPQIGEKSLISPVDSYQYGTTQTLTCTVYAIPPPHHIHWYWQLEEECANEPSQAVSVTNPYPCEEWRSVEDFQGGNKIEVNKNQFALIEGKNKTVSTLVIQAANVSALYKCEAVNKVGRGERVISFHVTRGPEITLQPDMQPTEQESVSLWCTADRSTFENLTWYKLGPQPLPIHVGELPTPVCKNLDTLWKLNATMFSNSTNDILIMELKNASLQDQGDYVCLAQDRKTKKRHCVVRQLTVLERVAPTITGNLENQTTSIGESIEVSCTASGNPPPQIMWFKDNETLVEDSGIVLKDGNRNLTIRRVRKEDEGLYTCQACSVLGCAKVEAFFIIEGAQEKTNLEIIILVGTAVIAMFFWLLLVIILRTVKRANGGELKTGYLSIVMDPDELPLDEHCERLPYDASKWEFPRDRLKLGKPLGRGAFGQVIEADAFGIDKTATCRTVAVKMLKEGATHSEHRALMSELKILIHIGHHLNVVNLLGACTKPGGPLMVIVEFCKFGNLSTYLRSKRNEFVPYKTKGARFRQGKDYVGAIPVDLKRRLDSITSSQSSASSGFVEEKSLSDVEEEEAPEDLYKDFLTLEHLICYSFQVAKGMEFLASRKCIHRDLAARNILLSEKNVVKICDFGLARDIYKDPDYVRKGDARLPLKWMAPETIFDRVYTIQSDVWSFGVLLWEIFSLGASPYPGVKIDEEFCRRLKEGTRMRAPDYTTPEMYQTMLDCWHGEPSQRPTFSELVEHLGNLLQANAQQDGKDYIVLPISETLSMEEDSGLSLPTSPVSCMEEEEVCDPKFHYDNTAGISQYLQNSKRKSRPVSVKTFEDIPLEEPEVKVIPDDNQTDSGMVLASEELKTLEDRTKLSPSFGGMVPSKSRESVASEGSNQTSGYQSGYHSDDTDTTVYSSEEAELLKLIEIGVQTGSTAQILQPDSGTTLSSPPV

Structure (SMILES) | IC50 [µM]
COc1cc(-c2nn(C3CCC(N4CCN(C)CC4)CC3)c3ncnc(N)c23)ccc1NC(=O)Nc1ccccc1 [1-(4-{(S)-4-Amino-1-[4-(4-methyl-piperazin-1-yl)-cyclohexyl]-1H-pyrazolo[3,4-d]pyrimidin-3-yl}-2-methoxy-phenyl)-3-phenyl-urea] | 0.263
COc1cc(-c2nn(C3CCC(N4CCN(C)CC4)CC3)c3ncnc(N)c23)ccc1NC(=O)c1ccccc1 [N-(4-{(S)-4-Amino-1-[4-(4-methyl-piperazin-1-yl)-cyclohexyl]-1H-pyrazolo[3,4-d]pyrimidin-3-yl}-2-methoxy-phenyl)-benzamide] | > 50
